{"source": "patent US12421211B2", "about": "“Heterocyclic compounds” (Hoffmann-La Roche Inc., priority 2021, dated 2025)", "note": "Where a name gives a salt, the structure may show the parent alone.", "data": [{"tested_on": "Acinetobacter baumannii ATCC17961", "assay": "Antimicrobial susceptibility testing: 90% growth inhibitory concentration (IC90) determination", "format": "cell-based", "conditions": "Acinetobacter baumannii, ATCC17961, 16 h, 90% growth inhibitory concentration, Acinetobacter baumannii ATCC17961, Iso-Sensitest broth, OD 600 nm over 16 h; read-out: ATCC 17961 IC90", "summary_of_the_method": "(§1)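 A. baumannii ATCC17961 at ~5×10^5 CFU/ml in Iso-Sensitest broth exposed to 10-point twofold dilutions (e.g. 50–0.097 μM final), 35±2° C. OD600 read every 20 minutes over 16h; IC50 and IC90 derived from inhibition during logarithmic growth.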", "units": {"IC90": "nM"}, "values": [{"smiles": "Cc1nn(CC(=O)Nc2ccnnc2)cc1-c1ccc(-c2cnc(C(=O)Nc3ccc(C(=O)N4CCN(C(=O)C5CC[N+](C)(C)CC5)CC4)c(Cl)c3)n2C)c(F)c1F", "note": "[Example G33, N-[3-chloro-4-[4-(1,1-dimethylpiperidin-1-ium-4-carbonyl)piperazine-1-carbonyl]phenyl]-5-[2,3-difluoro-4-[3-methyl-1-[2-oxo-2-(pyridazin-4-ylamino)ethyl]pyrazol-4-yl]phenyl]-1-methyl-imidazole-2-carboxamide; formate]", "IC90": 440}, {"smiles": "Cc1n[nH]cc1-c1ccc(-c2cnc(C(=O)Nc3ccc(C(=O)N4CCN(C(=O)[C@@H]5C[C@@H](O)CN5)CC4)c(Cl)c3)n2C)c(F)c1F", "note": "[Example D36, N-[3-chloro-4-[4-[(2S,4R)-4-hydroxypyrrolidine-2-carbonyl]piperazine-1-carbonyl]phenyl]-5-[2,3-difluoro-4-(3-methyl-1H-pyrazol-4-yl)phenyl]-1-methyl-imidazole-2-carboxamide]", "IC90": 88}, {"smiles": "Cn1c(-c2ccc(-c3cn(CCC(N)=O)nc3C(F)(F)F)c(F)c2F)cnc1C(=O)Nc1ccc(C(=O)N2CCN(C(=O)C3CC[N+](C)(C)CC3)CC2)c(Cl)c1", "note": "[Example F1, 5-[4-[1-(3-amino-3-oxo-propyl)-3-(trifluoromethyl)pyrazol-4-yl]-2,3-difluoro-phenyl]-N-[3-chloro-4-[4-(1,1-dimethylpiperidin-1-ium-4-carbonyl)piperazine-1-carbonyl]phenyl]-1-methyl-imidazole-2-carboxamide; formate]", "IC90": 330}, {"smiles": "COCCn1cc(-c2ccc(-c3cnc(C(=O)Nc4ccc(C(=O)N5CCN(C(=O)CC6(O)CC[N+](C)(C)CC6)CC5)c(Cl)c4)n3C)c(F)c2F)c(C)n1", "note": "[Example D17, N-[3-chloro-4-[4-[2-(4-hydroxy-1,1-dimethyl-piperidin-1-ium-4-yl)acetyl]piperazine-1-carbonyl]phenyl]-5-[2,3-difluoro-4-[1-(2-methoxyethyl)-3-methyl-pyrazol-4-yl]phenyl]-1-methyl-imidazole-2-carboxamide; formate]", "IC90": 260}, {"smiles": "COCCn1nc(C)c(-c2ccc(-c3cnc(C(=O)Nc4ccc(C(=O)N5CCN(C(=O)C6CC[N+](C)(C)CC6)CC5)c(Cl)c4)n3C)c(F)c2F)c1C", "note": "[Example A2, N-[3-chloro-4-[4-(1,1-dimethylpiperidin-1-ium-4-carbonyl)piperazine-1-carbonyl]phenyl]-5-[2,3-difluoro-4-[1-(2-methoxyethyl)-3,5-dimethyl-pyrazol-4-yl]phenyl]-1-methyl-imidazole-2-carboxamide; formate]", "IC90": 230}, {"smiles": "Cn1c(-c2ccc(-c3ccc(NCCC(N)=O)cn3)c(F)c2F)cnc1C(=O)Nc1ccc(C(=O)N2CCN(C(=O)C3CC[N+](C)(C)CC3)CC2)c(Cl)c1", "note": "[Example F63, 5-[4-[5-[(3-amino-3-oxo-propyl)amino]-2-pyridyl]-2,3-difluoro-phenyl]-N-[3-chloro-4-[4-(1,1-dimethylpiperidin-1-ium-4-carbonyl)piperazine-1-carbonyl]phenyl]-1-methyl-imidazole-2-carboxamide; formate]", "IC90": 560}, {"smiles": "CNC(=O)Cn1cc(-c2ccc(-c3cnc(C(=O)Nc4ccc(C(=O)N5CCN(C(=O)[C@@H]6C[C@@H](O)C[N+]6(C)C)CC5)c(Cl)c4)n3C)c(F)c2F)c(C)n1", "note": "[Example F5, N-[3-chloro-4-[4-[(2S,4R)-4-hydroxy-1,1-dimethyl-pyrrolidin-1-ium-2-carbonyl]piperazine-1-carbonyl]phenyl]-5-[2,3-difluoro-4-[3-methyl-1-[2-(methylamino)-2-oxo-ethyl]pyrazol-4-yl]phenyl]-1-methyl-imidazole-2-carboxamide; formate]", "IC90": 280}, {"smiles": "Cc1nn(CC(=O)NC2CCCOC2)cc1-c1ccc(-c2cnc(C(=O)Nc3ccc(C(=O)N4CCN(C(=O)C5CC[N+](C)(C)CC5)CC4)c(Cl)c3)n2C)c(F)c1F", "note": "(centres unmarked) [Example G22, N-[3-chloro-4-[4-(1,1-dimethylpiperidin-1-ium-4-carbonyl)piperazine-1-carbonyl]phenyl]-5-[2,3-difluoro-4-[3-methyl-1-[2-oxo-2-(tetrahydropyran-3-ylamino)ethyl]pyrazol-4-yl]phenyl]-1-methyl-imidazole-2-carboxamide; formate]", "IC90": 670}, {"smiles": "COCCn1nc(C)c(-c2ccc(-c3cnc(C(=O)Nc4ccc(C(=O)N5CCN(C(=O)[C@@H]6C[C@@H](O)C[N+]6(C)C)CC5)c(Cl)c4)n3C)c(F)c2F)c1C", "note": "(racemic) [Example D3, N-[3-chloro-4-[4-[(2S,4R)-4-hydroxy-1,1-dimethyl-pyrrolidin-1-ium-2-carbonyl]piperazine-1-carbonyl]phenyl]-5-[2,3-difluoro-4-[1-(2-methoxyethyl)-3,5-dimethyl-pyrazol-4-yl]phenyl]-1-methyl-imidazole-2-carboxamide; formate]", "IC90": 390}, {"smiles": "Cc1nn(CC(=O)Nc2ccc(F)cc2)cc1-c1ccc(-c2cnc(C(=O)Nc3ccc(C(=O)N4CCN(C(=O)C5CC[N+](C)(C)CC5)CC4)c(Cl)c3)n2C)c(F)c1F", "note": "[Example G8, N-[3-chloro-4-[4-(1,1-dimethylpiperidin-1-ium-4-carbonyl)piperazine-1-carbonyl]phenyl]-5-[2,3-difluoro-4-[1-[2-(4-fluoroanilino)-2-oxo-ethyl]-3-methyl-pyrazol-4-yl]phenyl]-1-methyl-imidazole-2-carboxamide; formate]", "IC90": 84}, {"smiles": "COCCn1ncc(-c2ccc(-c3cnc(C(=O)Nc4ccc(C(=O)N5CCN(C(=O)CCC[N+](C)(CCCN)CC(=O)O)CC5)c(Cl)c4)n3C)c(C)c2F)c1C", "note": "(centres unmarked) [Example O5, 3-aminopropyl-(carboxymethyl)-[4-[4-[2-chloro-4-[[5-[3-fluoro-4-[1-(2-methoxyethyl)-5-methyl-pyrazol-4-yl]-2-methyl-phenyl]-1-methyl-imidazole-2-carbonyl]amino]benzoyl]piperazino]-4-keto-butyl]-methyl-ammonium. 1:12,2,2-trifluoroacetic acid; 2,2,2-trifluoroacetate]", "IC90": 200}, {"smiles": "COCCn1cc(-c2ccc(-c3cnc(C(=O)Nc4ccc(C(=O)N5CCN(C(=O)C[N+]6(C)CCC(N)C6)CC5)c(Cl)c4)n3C)c(F)c2F)c(C)n1", "note": "(centres unmarked) [Example C3, N-[4-[4-[2-(3-amino-1-methyl-pyrrolidin-1-ium-1-yl)acetyl]piperazine-1-carbonyl]-3-chloro-phenyl]-5-[2,3-difluoro-4-[1-(2-methoxyethyl)-3-methyl-pyrazol-4-yl]phenyl]-1-methyl-imidazole-2-carboxamide; formic acid; formate]", "IC90": 100}, {"smiles": "Cn1c(-c2ccc(-c3cn[nH]c3C3=CCOCC3)c(F)c2F)cnc1C(=O)Nc1ccc(C(=O)N2CCN(C(=O)C3CC[N+](C)(C)CC3)CC2)c(Cl)c1", "note": "[Example I7, N-[3-chloro-4-[4-(1,1-dimethylpiperidin-1-ium-4-carbonyl)piperazine-1-carbonyl]phenyl]-5-[4-[5-(3,6-dihydro-2H-pyran-4-yl)-1H-pyrazol-4-yl]-2,3-difluoro-phenyl]-1-methyl-imidazole-2-carboxamide;formate]", "IC90": 760}]}, {"tested_on": "Acinetobacter baumannii ATCC17961", "assay": "Antimicrobial susceptibility testing: 90% growth inhibitory concentration (IC90) determination", "format": "cell-based", "conditions": "Acinetobacter baumannii, ATCC17961, 16 h, read-out: ATCC 17961 IC90", "summary_of_the_method": "as §1", "units": {"IC90": "nM"}, "values": [{"smiles": "COCCn1nc(C)c(-c2ccc(-c3cnc(C(=O)Nc4ccc(C(=O)N5CCN(C(=O)C6CC[N+](C)(CCO)CC6)CC5)c(Cl)c4)n3C)cc2)c1C", "note": "(centres unmarked) [Example B11, N-[3-chloro-4-[4-[1-(2-hydroxyethyl)-1-methyl-piperidin-1-ium-4-carbonyl]piperazine-1-carbonyl]phenyl]-5-[4-[1-(2-methoxyethyl)-3,5-dimethyl-pyrazol-4-yl]phenyl]-1-methyl-imidazole-2-carboxamide; formate]", "IC90": 170}]}]}
